{"source": "patent US12083227B2", "about": "“Solid pharmaceutical formulations for treating endometriosis, uterine fibroids, polycystic ovary syndrome or adenomyosis” (priority 2017, dated 2024)", "key": {"[1]": {"test": "drug interaction studies: co-administered drug in the presence of elagolix", "quoted_text": "Drug interaction studies were performed with elagolix and other drugs that are likely to be co-administered and with drugs commonly used as probes for pharmacokinetic interactions."}, "[2]": {"test": "gel formation and pH of elagolix sodium solution", "type": "physicochemical", "description": "1.23 gram of elagolix sodium was added to 2 mL purified water in a test tube. […] To facilitate continued dissolution, the solution was stirred and the gel was dispersed continuously using a spatula. The solution pH was measured with undissolved solid present using a calibrated pH meter."}, "[3]": {"conditions": "Ethinyl estradiol 35 mcg and triphasic norgestimate 0.18/0.215/0.25 mg once daily, elagolix 150 mg once daily, N 21"}, "[4]": {"conditions": "0.5 mg single dose, elagolix 200 mg twice daily × 10 days, N 11"}, "[5]": {"conditions": "2 mg single dose, elagolix 150 mg once daily × 13 days, N 11"}, "[6]": {"conditions": "2 mg single dose, elagolix 300 mg twice daily × 11 days, N 20"}, "[7]": {"conditions": "0.35 mg once daily × 112 days, elagolix 150 mg once daily × 56 days, N 32"}, "[8]": {"conditions": "20 mg once daily, elagolix 300 mg twice daily × 7 days, N 10"}}, "data": [{"compound": "C#C[C@]1(O)CC[C@H]2[C@@H]3CCC4=CC(=NO)CC[C@@H]4[C@H]3CC[C@@]21CC", "note": "(mixture of isomers) [Norelgestromin]", "values": [{"measurement": "AUC Ratio (with elagolix vs. medication alone)", "setting": "[1]; [3]", "value": 0.85}, {"measurement": "Cmax Ratio (with elagolix vs. medication alone)", "setting": "[1]; [3]", "value": 0.87}]}, {"compound": "C#CC1(O)CC[C@H]2[C@@H]3CCC4=CC(=O)CC[C@@H]4[C@H]3CC[C@@]21CC", "note": "(mixture of isomers) [Norgestrel]", "values": [{"measurement": "AUC Ratio (with elagolix vs. medication alone)", "setting": "[1]; [3]", "value": 0.92}, {"measurement": "Cmax Ratio (with elagolix vs. medication alone)", "setting": "[1]; [3]", "value": 0.89}]}, {"compound": "C[C@H]1O[C@@H](O[C@H]2[C@@H](O)C[C@H](O[C@H]3[C@@H](O)C[C@H](O[C@H]4CC[C@@]5(C)[C@H](CC[C@@H]6[C@@H]5C[C@@H](O)[C@]5(C)[C@@H](C7=CC(=O)OC7)CC[C@]65O)C4)O[C@@H]3C)O[C@@H]2C)C[C@H](O)[C@@H]1O", "note": "[Digoxin]", "values": [{"measurement": "AUC Ratio (with elagolix vs. medication alone)", "setting": "[1]; [4]", "value": 1.26}, {"measurement": "Cmax Ratio (with elagolix vs. medication alone)", "setting": "[1]; [4]", "value": 1.71}]}, {"compound": "C#C[C@]1(O)CC[C@H]2[C@@H]3CCc4cc(O)ccc4[C@H]3CC[C@@]21C", "note": "[Ethinyl Estradiol]", "values": [{"measurement": "AUC Ratio (with elagolix vs. medication alone)", "setting": "[1]; [3]", "value": 1.30}, {"measurement": "Cmax Ratio (with elagolix vs. medication alone)", "setting": "[1]; [3]", "value": 1.15}]}, {"compound": "Cc1ncc2n1-c1ccc(Cl)cc1C(c1ccccc1F)=NC2", "note": "[Midazolam]", "values": [{"measurement": "AUC Ratio (with elagolix vs. medication alone)", "setting": "[1]; [5]", "value": 0.65}, {"measurement": "Cmax Ratio (with elagolix vs. medication alone)", "setting": "[1]; [5]", "value": 0.81}, {"measurement": "AUC Ratio (with elagolix vs. medication alone)", "setting": "[1]; [6]", "value": 0.46}, {"measurement": "Cmax Ratio (with elagolix vs. medication alone)", "setting": "[1]; [6]", "value": 0.56}]}, {"compound": "C#C[C@]1(O)CC[C@H]2[C@@H]3CCC4=CC(=O)CC[C@@H]4[C@H]3CC[C@@]21C", "note": "[Norethindrone]", "values": [{"measurement": "AUC Ratio (with elagolix vs. medication alone)", "setting": "[1]; [7]", "value": 0.88}, {"measurement": "Cmax Ratio (with elagolix vs. medication alone)", "setting": "[1]; [7]", "value": 0.95}]}, {"compound": "CC(C)c1nc(N(C)S(C)(=O)=O)nc(-c2ccc(F)cc2)c1/C=C/[C@@H](O)C[C@@H](O)CC(=O)O", "note": "[Rosuvastatin]", "values": [{"measurement": "AUC Ratio (with elagolix vs. medication alone)", "setting": "[1]; [8]", "value": 0.60}, {"measurement": "Cmax Ratio (with elagolix vs. medication alone)", "setting": "[1]; [8]", "value": 0.99}]}, {"compound": "COc1cccc(-c2c(C)n(Cc3c(F)cccc3C(F)(F)F)c(=O)n(C[C@H](NCCCC(=O)[O-])c3ccccc3)c2=O)c1F.[Na+]", "note": "[elagolix sodium, sodium 4-((R)-2-[5-(2-fluoro-3-methoxy-phenyl)-3-(2-fluoro-6-trifluoromethyl-benzyl)-4-methyl-2,6-dioxo-3,6-dihydro-2H-pyrimidin-1-yl]-1-phenyl-ethylamino)butanoate]", "values": [{"measurement": "gel formation during dissolution", "setting": "[2]; 1.23 gram added to 2 mL purified water", "value": "started to form gel"}, {"measurement": "pH value of the solution", "setting": "[2]; 1.23 gram in 2 mL purified water, undissolved solid present, 20° C.", "value": 9.80}]}]}
